Experimental data from ChEMBL document CHEMBL1641406, “Discovery of a 1,5-dihydrobenzo[b][1,4]diazepine-2,4-dione series of inhibitors of HIV-1 capsid assembly” (Bioorg Med Chem Lett, 2011).

Assays:
[1] = tested on: Human immunodeficiency virus 1; test: Antiviral activity against HIV1 assessed as inhibition of capsid assembly; assay type: functional
[2] = tested on: Human immunodeficiency virus 1; test: Antiviral activity against HIV1 infected in human C8166 cells assessed as inhibition of viral replication after 3 days by luciferase assay; assay type: functional, organism-based; conditions: Human immunodeficiency virus 1, C8166, 72 h
Rous sarcoma virus = test: Antiviral activity against Rous sarcoma virus assessed as inhibition of capsid assembly; assay type: functional
[3] = tested on: Human immunodeficiency virus 1; test: Antiviral activity against HIV1 assessed as inhibition of capsid assembly at 1.4 uM; assay type: functional
[4] = tested on: Human immunodeficiency virus 1; test: Antiviral activity against HIV1 assessed as inhibition of capsid assembly at 3.8 uM; assay type: functional
[5] = tested on: Human immunodeficiency virus 1; test: Antiviral activity against HIV1 expressing wild type reverse transcriptase infected in human C8166 cells assessed as inhibition of viral replication after 3 days by luciferase assay; assay type: functional, organism-based; conditions: Human immunodeficiency virus 1, C8166, 72 h
[6] = tested on: Human immunodeficiency virus 1; test: Antiviral activity against HIV1 expressing reverse transcriptase K103N/Y181C double mutant infected in human C8166 cells assessed as inhibition of viral replication after 3 days by luciferase assay; assay type: functional, organism-based; conditions: Human immunodeficiency virus 1, C8166, 72 h
[7] = Cytotoxicity against human C8166 cells; assay type: cell-based

SMILES	IC50 [1] [µM]	EC50 [2] [µM]	further results
CCCCN/C=C1\C(=O)Nc2ccc(Cl)cc2N(c2ccccc2)C1=O	1.4	17	IC50 (Rous sarcoma virus): > 100 µM
O=C1CC(=O)Nc2cc(Cl)ccc2N1	> 46		
COCCN/C=C1\C(=O)Nc2ccc(Cl)cc2NC1=O	1.4		
O=C1Nc2ccc(Cl)cc2NC(=O)/C1=C/NCCO	0.85		
O=C1Nc2ccc(Cl)cc2NC(=O)/C1=C/NCc1ccncc1	0.67		
COCCN/C=C1/C(=O)Nc2cc(Cl)ccc2N(C)C1=O	0.59		
CCN1C(=O)/C(=C\NCCOC)C(=O)Nc2cc(Cl)ccc21	0.47		
COCCN/C=C1/C(=O)Nc2cc(Cl)ccc2N(c2ccc(C)cc2)C1=O	> 9		
COCCN/C=C1\C(=O)N(C)c2cccc(Cl)c2N(c2ccccc2)C1=O	0.93		
COCCN/C=C1\C(=O)N(C)c2c(Cl)cccc2N(c2ccccc2)C1=O	2.6		
COCCN/C=C1\C(=O)N(C)c2cc(Cl)ccc2N(c2ccccc2)C1=O	1.6		
COCCN/C=C1\C(=O)N(C)c2ccc(C(F)(F)F)cc2N(c2ccccc2)C1=O	0.89		
COCCN/C=C1\C(=O)N(C)c2ccc(C3CC3)cc2N(c2ccccc2)C1=O	1.4		
COCCN/C=C1\C(=O)N(C)c2ccc(C(F)(F)F)cc2N(c2ccc(Cl)cc2)C1=O	4		
COCCN/C=C1\C(=O)N(C)c2ccc(C(F)(F)F)cc2N(c2cccc(Cl)c2)C1=O	7.8		
COCCN/C=C1\C(=O)N(C)c2ccccc2N(c2cccs2)C1=O	0.5		
CN1c2ccc(Cl)cc2N(c2ccccc2)C(=O)c2c[nH]nc21	0.3	7.8	
CN1c2ccc(Cl)cc2N(c2ccccc2)C(=O)c2cn(C)nc21	0.7	7	

SMILES	IC50 [1] [µM]	EC50 [2] [µM]	further results
CCn1cc2c(n1)N(C)c1ccc(Cl)cc1N(c1ccccc1)C2=O	2.2		
COCCn1cc2c(n1)N(C)c1ccc(Cl)cc1N(c1ccccc1)C2=O	1.5	16	
CN(C)CCn1cc2c(n1)N(C)c1ccc(Cl)cc1N(c1ccccc1)C2=O	6.8	16	
CN1c2ccc(Cl)cc2N(c2ccccc2)C(=O)c2cn(Cc3ccc(CN4CCOCC4)cc3)nc21	1	0.9	
CN1c2ccc(Cl)cc2N(c2ccccc2)C(=O)c2cn(Cc3ccc(C(=O)O)cc3)nc21	0.6	2	
CN1c2ccc(Cl)cc2N(c2ccccc2)C(=O)c2cn(Cc3cccc(O)c3)nc21	0.6	4.7	
CN1c2ccc(Cl)cc2N(c2ccccc2)C(=O)c2[nH]cnc21	0.21	3.8	
CN1c2ccc(Cl)cc2N(c2ccccc2)C(=O)c2c1ncn2C	0.3	2.9	
CCn1cnc2c1C(=O)N(c1ccccc1)c1cc(Cl)ccc1N2C	0.22	5.2	
COCCn1cnc2c1C(=O)N(c1ccccc1)c1cc(Cl)ccc1N2C	0.36	5.8	
CN1c2ccc(Cl)cc2N(c2ccccc2)C(=O)c2c1ncn2CCN	0.37	4.8	
CN1c2ccc(Cl)cc2N(c2ccccc2)C(=O)c2c1ncn2Cc1cccc(O)c1	0.56	7.3	
CN1c2ccc(Cl)cc2N(c2ccccc2)C(=O)c2c1ncn2Cc1ccc(C(=O)O)cc1	0.43	6.1	
COCCNCc1ccc(Cn2cnc3c2C(=O)N(c2ccccc2)c2cc(Cl)ccc2N3C)cc1	0.17	0.9	
C=CCC1C(=O)N(C)c2ccc(C(F)(F)F)cc2N(c2ccccc2)C1=O (configuration not stated)	16		
CN1C(=O)C(CCc2ccccc2)C(=O)N(c2ccccc2)c2cc(C(F)(F)F)ccc21 (configuration not stated)			inhibition at 1.4 µM [3]: 10%
CN1C(=O)C(Cc2ccccc2)C(=O)N(c2ccccc2)c2cc(C(F)(F)F)ccc21 (configuration not stated)			inhibition at 3.8 µM [4]: 40%; EC50 [5]: > 20 µM
CN1C(=O)C(c2ccccc2)C(=O)N(c2ccccc2)c2cc(C(F)(F)F)ccc21 (configuration not stated)	1.2		EC50 [6]: 2.7 µM; CC50 [7]: > 20 µM; EC50 [5]: 3 µM
